From patent US20070060632A1, “Lofexidine” (TEXCONTOR ETABLISSEMENT, priority 2005, published 2007)
Several values for one entry are separate records, joined by “and”; a condition that tells them apart may be missing. Equal entries are not always repeated. Structures can show the parent of a compound that is named as a salt.

Legend:
[1] = tested on: rat model of post-operative pain; assay: Rat model of post-operative pain (hind paw incision), tactile allodynia by Electronic Von Frey; type: in vivo; details: for Tactile Pressure Post-treatment, Average per rat: average of 4 points of one rat; for % Inhibition: Δ Treatment/Δ Blank × 100% / Δ Treatment: Tactile Pressure [(Post-Treatment) − (Pre-Treatment)]: group; for % Inh per rat: individual rat; for Tactile Pressure Post-Treatment: single points (4 per rat), 24 hours after surgery
Method: Lofexidine at 0.00032 and 0.0032 mg/rat injected intrathecally (ITH) was evaluated for possible analgesic activity in a rat model of post-operative pain which was induced with an incision made on the plantar surface of the hind paw. To measure tactile allodynia, a supertip with a flattened surface connected to Electrovonfrey Aesthethiometer (IITC, USA) was applied slowly and gently onto the plantar surface of the hind paw, where 4 points around the incision were identified. The endpoint is the mean withdrawal threshold values (gm) in response to von Frey filament, serving as a measure of analgesic activity. Percent inhibition was calculated as Δ treatment values (change in threshold pressure caused by treatment) relative to Δ blank values (change in threshold value caused by incision). Lofexidine.HCl was dissolved in 0.9% NaCl and at doses of 0.00032 and 0.0032 mg/rat was administered intrathecally (ITH). The dosing volume was 10 μl/rat. Male Wistar derived rats weighing 270±30 g provided by BioLasco Taiwan (under Charles River Laboratories Technology licensee) were used. Space allocation for animals was 45×23×15 cm for 6 rats. Animals were housed in APEC^R cages. All animals were maintained in a controlled temperature (22-24° C.) and humidity (60%-80%) environment with 12 hours light dark cycles for at least one week in MDS Pharma Services-Taiwan Laboratory prior to use. Free access to standard lab chow (Lab Diet, Rodent Diet, PMI Nutrition International, USA) and tap water was granted. All aspects of this work including housing, experimentation and disposal of animals were performed in general accordance with the Guide for the Care and Use of Laboratory Animals (National Academy Press, Washington, D. C, 1996). Groups of 5 male Wistar rats weighing 270±30 g were used. Prior to surgery, individual animals were acclimatised to the testing environment and baseline responses to Electronic Von Frey Aesthesiometer (2290CE Electrovonfrey®, IITC, USA) with a rigid tip were performed (Pre-Incision). Under pentobarbital (50 mg/kg, 5 ml/kg, i.p.) anesthesia, the left hind paw was aseptically prepared. A 1-cm longitudinal incision was made with a number 11 blade, through the skin and fascia of the plantar aspect of the foot, starting 0.5 cm from the proximal edge of the heel and extending toward the toes. The plantaris muscle was elevated and incised longitudinally, followed by crushing with a mosquito hemostat for 20 seconds. The muscle origin and insertion remained intact After hemostasis with gentle pressure, the skin and fascia were then closed as one layer using 4-0 silk suture. Evaluation for pain was performed at 24 hours postoperatively between 08:00 and 16:00 h. Each animal was monitored at 15, 30, 60 and 120 minutes after intrathecal administration of lofexidine.HCl. The rats were placed under inverted plexiglas cages on a wire mesh rack and a brief observation of general behavior post-injection was made. The rigid tip part of the Electronic Von Frey Aesthesiometer was applied perpendicularly from underneath the mesh floor to the four points around the wound surface of the animal with slow upward force against the paw. A positive response to tactile pressure was recorded if the paw was sharply withdrawn; ambulation was considered an ambiguous response, and in such cases, the stimulus was reapplied. Mean values from 4 points for each rat and from 5 rats in each group were calculated. Percent inhibition due to treatment relative to pre-treatment pain response was calculated according to the formula: Tactile Pressure [(Post-Treatment)−(Pre-Treatment)]/[(Pre-Incision)−(Pre-Treatment)]×100%. Inhibition by 50% or more (≧50%) is considered significant analgesic effect. Unpaired Student's t test is applied for comparison of the % inhibition values between test substance-and vehicle-treated groups. Significance is considered at P<0.05 level

[2] = tested on: nerve ligation-induced chronic pain model in rats; assay: Nerve ligation-induced chronic (neuropathic) pain model in rats, mechanical allodynia by Electronic Von Frey; type: in vivo, rat; details: for Tactile Pressure Post-Treatment, Average / Tactile Pressure Δ Treatment, Average: average of 5 rats; for Tactile Pressure Post-Treatment / Tactile Pressure Δ Treatment: individual rat
Method: Lofexidine was evaluated for possible analgesic activity in neuropathic pain using a nerve ligation-induced chronic pain model in rats. Lofexidine HCl was administered intrathecally (ITH) at 3.2 and 10 μg/animal and analgesia was measured at 15, 30, 60 and 120 minutes post-dosing using an Electronic Von Frey Aesthesiometer (IITC, USA) with a #12 supertip. A 50% or greater (≧50%) inhibition relative to blank indicates possible analgesic activity. Lofexidine HCl at doses of 3.2 and 10 μg/animal were administered intrathecally. Sterile Saline (obtained from Sintong Biotech Company, Taiwan) was used as vehicle and dosing volume was 10 μl/animal. Male Wistar rats weighing 160 to 200 g were used. Under pentobarbital (50 mg/kg, 5 ml/kg, i.p.) anesthesia, the sciatic nerve was exposed at mid-thigh level. Three ligatures (4-0 silk suture), about 1 mm apart, were loosely tied around the nerve. The animals were then housed individually in cages with soft bedding for 7 days before testing for mechanical allodynia. On the test day, rats were placed under inverted plexiglas cages on a wire mesh rack and allowed to acclimatise for 20 to 30 minutes. Allodynia was evaluated by responsiveness to a #12 Supertip® (IITC, USA) applied beneath the mesh floor perpendicular to the central plantar surface of the left hind paw. The tip was gradually applied with sufficient force to cause slight buckling of the filament against the paw. A positive response to the applied tactile pressure, noted by sharp withdrawal of the paw, was recorded automatically by an Electronic Von Frey Aesthesiometer (2290CE Electrovonfrey®, IITC, USA). The endpoint is the withdrawal threshold (gm) to von Frey filament, serving as a measure of analgesic activity. Rats were pre-selected (for presence of allodynia) for experimentation only if the withdrawal threshold 7 days after nerve ligation (pre-treatment) was reduced by 10 grams of force relative to the response of the individual paw before nerve ligation (pre-ligation). Test substance or vehicle was administered intrathecally (3.2 μg and 10 μg/animal) to groups of 5 animals and the level of allodynia was again determined (at 15, 30, 60 and 120 minutes post-treatment). Allodynia is calculated as follows: % Inhibition=ΔTreatment/ΔBlank×100%; where Δ Treatment is Tactile Pressure [(Post-Treatment)−(Pre-Treatment)] and Δ Blank is Tactile Pressure [(Pre-Ligation)−(Pre-Treatment)]. A 50 percent or greater (≧50%) inhibition relative to blank indicates possible analgesic activity.

chronic pelvic pain = details: given orally, dosages of up to 1200 μg per day; cited from earlier work
[3] = systemically (orally or by intravenous injection), especially at high doses (>600 μg per day); cited from earlier work

With `CC(Oc1c(Cl)cccc1Cl)C1=NCCN1` (centres unmarked) [Lofexidine HCl] the “Tactile Pressure Post-treatment, Average per rat” value ([1]; 0.00032 mg/rat ITH, 15 min.) was 18.0 g, the “% Inhibition: Δ Treatment/Δ Blank × 100%” value ([1]; 0.00032 mg/rat ITH, 15 min.) was 2.6% and the “Δ Treatment: Tactile Pressure [(Post-Treatment) − (Pre-Treatment)]” value (from here on “Δ Treatment: Tactile Pressure”) ([1]; 0.00032 mg/rat ITH, 15 min.) was 0.8 g. The “% Inh per rat” value ([1]; 0.00032 mg/rat ITH, 15 min.) was −7.4% and 2.5% and −5.6% and 8.0%, the “% Inhibition: Δ Treatment/Δ Blank × 100%” value ([1]; 0.00032 mg/rat ITH, 30 min.) was 7.6% and the “Δ Treatment: Tactile Pressure” value ([1]; 0.00032 mg/rat ITH, 30 min.) was 2.3 g. The “% Inh per rat” value ([1]; 0.00032 mg/rat ITH, 30 min.) was −3.2% and 4.1%, the “Tactile Pressure Post-Treatment” value ([1]; 0.00032 mg/rat ITH, 30 min.) was 26.0 g and 20.0 g and the “Tactile Pressure Post-treatment, Average per rat” value ([1]; 0.00032 mg/rat ITH, 60 min.) was 22.0 g. The “% Inhibition: Δ Treatment/Δ Blank × 100%” value ([1]; 0.00032 mg/rat ITH, 60 min.) was 4.3%, the “Δ Treatment: Tactile Pressure” value ([1]; 0.00032 mg/rat ITH, 60 min.) was 1.3 g and the “% Inh per rat” value ([1]; 0.00032 mg/rat ITH, 60 min.) was −0.7% and 3.0% and 0.8% and 7.4%. For the same molecule, the “Tactile Pressure Post-Treatment” value ([1]; 0.00032 mg/rat ITH, 60 min.) was 22.0 g, the “% Inhibition: Δ Treatment/Δ Blank × 100%” value ([1]; 0.00032 mg/rat ITH, 120 min.) was 0.3% and the “Δ Treatment: Tactile Pressure” value ([1]; 0.00032 mg/rat ITH, 120 min.) was 0.1 g. The “% Inh per rat” value ([1]; 0.00032 mg/rat ITH, 120 min.) was −2.5% and −7.4% and 2.5% and 4.1% and 4.7%, the “Tactile Pressure Post-Treatment” value ([1]; 0.00032 mg/rat ITH, 120 min.) was 21.0 g (2×) and 22.0 g and 18.0 g and the “Tactile Pressure Post-treatment, Average per rat” value ([1]; 0.0032 mg/rat ITH, 15 min.) was 46.0 g. The “Tactile Pressure Post-Treatment” value ([1]; 0.0032 mg/rat ITH, 15 min.) was 43.0 g and 60.0 g, the “% Inh per rat” value ([1]; 0.0032 mg/rat ITH, 30 min.) was 47.0% and the “Tactile Pressure Post-Treatment” value ([1]; 0.0032 mg/rat ITH, 30 min.) was 44.0 g. For the same molecule, the “Δ Treatment: Tactile Pressure” value ([1]; 0.0032 mg/rat ITH, 60 min.) was 8.9 g, the “% Inh per rat” value ([1]; 0.0032 mg/rat ITH, 60 min.) was −3.5% and 0.9% and the “Tactile Pressure Post-Treatment” value ([1]; 0.0032 mg/rat ITH, 60 min.) was 29.0 g. For the same molecule, the “Tactile Pressure Post-treatment, Average per rat” value ([1]; 0.0032 mg/rat ITH, 120 min.) was 22.0 g, the “% Inhibition: Δ Treatment/Δ Blank × 100%” value ([1]; 0.0032 mg/rat ITH, 120 min.) was 5.5% and the “Δ Treatment: Tactile Pressure” value ([1]; 0.0032 mg/rat ITH, 120 min.) was 1.8 g. The “% Inh per rat” value ([1]; 0.0032 mg/rat ITH, 120 min.) was 1.2% and 5.8% and −2.5% and −8.2%, the Tactile Pressure Post-Treatment, Average ([2]; 3.2 μg/animal ITH, 15 Minutes) was 12.5 g and the “Tactile Pressure Δ Treatment, Average” value ([2]; 3.2 μg/animal ITH, 15 Minutes) was 1.3 g. The “Tactile Pressure Post-Treatment” value ([2]; 3.2 μg/animal ITH, 15 Minutes) was 8.9 g and 5.8 g, the “Tactile Pressure Δ Treatment” value ([2]; 3.2 μg/animal ITH, 15 Minutes) was -1.8 g and -5.2 g and 8.5 g and 6.3 g and -1.1 g and the “Tactile Pressure Δ Treatment, Average” value ([2]; 3.2 μg/animal ITH, 30 Minutes) was -1.1 g. The “Tactile Pressure Post-Treatment” value ([2]; 3.2 μg/animal ITH, 30 Minutes) was 7.4 g and 8.5 g and 10.0 g, the “Tactile Pressure Δ Treatment” value ([2]; 3.2 μg/animal ITH, 30 Minutes) was -0.5 g and -3.8 g and -0.6 g and 1.4 g and -2.0 g and the “Tactile Pressure Post-Treatment, Average” value ([2]; 3.2 μg/animal ITH, 60 Minutes) was 9.3 g. The “Tactile Pressure Δ Treatment, Average” value ([2]; 3.2 μg/animal ITH, 60 Minutes) was -1.8 g, the “Tactile Pressure Post-Treatment” value ([2]; 3.2 μg/animal ITH, 60 Minutes) was 8.7 g and 7.5 g and 6.5 g and the “Tactile Pressure Δ Treatment” value ([2]; 3.2 μg/animal ITH, 60 Minutes) was -2.0 g and -3.7 g and -2.1 g and 4.2 g and -5.5 g. For the same molecule, the “Tactile Pressure Post-Treatment, Average” value ([2]; 3.2 μg/animal ITH, 120 Minutes) was 9.2 g, the “Tactile Pressure Δ Treatment, Average” value ([2]; 3.2 μg/animal ITH, 120 Minutes) was -2.0 g and the “Tactile Pressure Post-Treatment” value ([2]; 3.2 μg/animal ITH, 120 Minutes) was 8.6 g and 6.1 g and 7.9 g. The “Tactile Pressure Δ Treatment” value ([2]; 3.2 μg/animal ITH, 120 Minutes) was -2.1 g and -5.1 g and -2.4 g and 0.8 g and -1.2 g, the “Tactile Pressure Δ Treatment, Average” value ([2]; 10 μg/animal ITH, 15 Minutes) was 13.0 g and the “Tactile Pressure Post-Treatment” value ([2]; 10 μg/animal ITH, 15 Minutes) was >36.8 g. For the same molecule, the “Tactile Pressure Δ Treatment” value ([2]; 10 μg/animal ITH, 15 Minutes) was 1.5 g and 11.0 g, the “Tactile Pressure Post-Treatment” value ([2]; 10 μg/animal ITH, 30 Minutes) was 7.0 g and >31.5 g and >35.5 g and the “Tactile Pressure Δ Treatment” value ([2]; 10 μg/animal ITH, 30 Minutes) was -3.9 g and 4.3 g. The “Tactile Pressure Post-Treatment” value ([2]; 10 μg/animal ITH, 60 Minutes) was 8.9 g, the “Tactile Pressure Δ Treatment” value ([2]; 10 μg/animal ITH, 60 Minutes) was 8.4 g and 4.2 g and -2.4 g and the “Tactile Pressure Post-Treatment, Average” value ([2]; 10 μg/animal ITH, 120 Minutes) was 11.0 g. The “Tactile Pressure Δ Treatment, Average” value ([2]; 10 μg/animal ITH, 120 Minutes) was 0.6 g, the “Tactile Pressure Post-Treatment” value ([2]; 10 μg/animal ITH, 120 Minutes) was 6.4 g and the “Tactile Pressure Δ Treatment” value ([2]; 10 μg/animal ITH, 120 Minutes) was 1.4 g and -0.1 g and 5.2 g and 1.3 g and -4.9 g. The “time of peak analgesic activity post-dosing” value ([2]; 10 μg/animal intrathecal) was 30 min, the “analgesic activity at 120 minutes post-dosing” value ([2]; 10 μg/animal intrathecal, 120 minutes post-dosing) was “no longer evident” and the “effectiveness in treatment of chronic pelvic pain” value (chronic pelvic pain) was “not effective”. The “common symptoms associated with systemic use” value [3] was “drowsiness, sedation and blood pressure and heart rate increases”.
In the case of `CC(Oc1c(Cl)cccc1Cl)C1=NCCN1` (centres unmarked) [Lofexidine], the “analgesic effect against post-operative pain” value ([1]; 0.00032 mg/rat ITH) is reported as “slight analgesic effect”, the “analgesic effect against post-operative pain” value ([1]; 0.0032 mg/rat intrathecal, 15 and 30 minute time points, compared with Δ blank values) is reported as “demonstrated analgesic effect” and the “analgesic activity, neuropathic pain” value ([2]; 3.2 μg/animal intrathecal) is reported as “low levels of analgesic activity”. For the same molecule, the “analgesic activity, neuropathic pain” value ([2]; 10 μg/animal intrathecal, 30 minutes post-injection) was “significant analgesic activity”.
